By melting point is commonly meant the temperature of the solid-liquid transition.

Results on 1 molecule are retold here after US9765039B2, “Biaryl derivatives as bromodomain inhibitors” (Zenith Epigenetics Ltd., priority 2012, dated 2017).

One data set concerns c-myc. In words: Inhibition of c-myc expression in cancer cell lines (mRNA, real-time PCR). The following applies: Human AML MV4-11 cells, 3 hours. Also on record: key: Active: Compounds with an IC50 value less than 30 μM were deemed to be active. The class given is cell-based. The essentials:
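MV4-11 cells (2.5×10^4) exposed to compound or 0.1% DMSO for 3 h at 37° C, then lysed for mRNA isolation. c-myc and cyclophilin cDNAs co-amplified by duplex RT real-time PCR. IC50 from dose-response curve.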

The test system of the next data set is Human AML MV-4-11 cells. In words: Inhibition of cell proliferation in cancer cell lines (CellTiter Aqueous One). The class given is cell-based. Set-up: key: Active: Compounds with an IC50 value less than 30 μM were deemed to be active.; Not Active: Compounds with an IC50 value less than 30 μM were deemed to be active. Conditions: 72 hours. The essentials:
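Exponentially growing MV-4-11 cells were treated immediately with two-fold compound dilutions from 30 µM to 0.2 µM in triplicate for 72 h at 37 °C. Viability was read by MTS (CellTiter Aqueous One) absorbance at 490 nm after 3-4 h; % proliferation vs DMSO gave IC50.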

Another data set relates to hMCP-1 mRNA. In words: Inhibition of hMCP-1 mRNA transcription in human peripheral blood mononuclear cells. Type of data set: cell-based. Also on record: key: Active: Compounds with an IC50 value less than 30 μM were deemed to be active.; Not Active: Compounds with an IC50 value less than 30 μM were deemed to be active. Conditions: 3 h. As to the method:
In this example, hMCP-1 mRNA in human peripheral blood mononuclear cells was quantitated to measure the transcriptional inhibition of hMCP-1 when treated with a compound of the present disclosure.
Human Peripheral Blood Mononuclear Cells were plated (1.0×10^5 cells per well) in a 96-well plate in 45 μL RPMI-1640 containing 10% FBS and penicillin/streptomycin. The cells were treated with the test compound (45 μL at 2× concentration), and then the cells were incubated at 37° C. for 3 h before the cells were harvested. At time of harvest, cells were transferred to V-bottom plates and centrifuged at 800 rpm for 5 minutes. Spent media was removed and cell lysis solution (70 μL) was added the cells in each well and incubated for 5-10 min at room temperature, to allow for complete cell lysis and detachment. mRNA was then prepared using the “mRNA Catcher PLUS plate” (Invitrogen), according to the protocol supplied. After the last wash, as much wash buffer as possible was aspirated without allowing the wells to dry. […]
The eluted mRNA isolated was then used in a one-step quantitative real-time PCR reaction, using components of the Ultra Sense Kit together with Applied Biosystems primer-probe mixes. Real-time PCR data was analyzed, normalizing the Ct values for hMCP-1 to an internal control, prior to determining the fold induction of each unknown sample, relative to the control.

The subject of another data set is arthritic rats. In words: In vivo efficacy in rat collagen induced arthritis. The following applies: collagen Day 1 and 7, dosed Day 11 to Day 17. Also on record: species or system female Lewis strain of rats. As to the method: Rat collagen-induced arthritis is an experimental model of polyarthritis that has been widely used for preclinical testing of numerous anti-arthritic agents. Following administration of collagen, this model establishes a measurable polyarticular inflammation, marked cartilage destruction in association with pannus formation and mild to moderate bone resorption and periosteal bone proliferation. In this model, collagen was administered to female Lewis strain of rats on Day 1 and 7 of study and dosed with compounds from Day 11 to Day 17. Compounds were evaluated to assess the potential to inhibit the inflammation (including paw swelling), cartilage destruction and bone resorption in arthritic rats, using a model in which the treatment is administered after the disease has been established.

The next data set relates to hApoA-1 mRNA. Description: Up-regulation of hApoA-1 mRNA transcription in Huh7 cells. Type of data set: cell-based, human. Set-up: key: Active: Compounds with an EC170 value less than 30 μM are deemed to be active.; Not Active: Compounds with an EC170 value less than 30 μM are deemed to be active. The following applies: 48 hrs treatment, ApoA-I mRNA. The procedure, abridged: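 Huh7 cells plated 24 h before compound, then treated 48 h; mRNA isolated from lysates and ApoA-I quantified by one-step real-time PCR. Fold induction derived from Ct values relative to the matching DMSO control; EC170 reported as activity measure.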

Take `COc1cc(OC)c2c(=O)[nH]c(-c3ccc(OCCNC(C)C)c(-c4ccc([S+](C)[O-])cc4)n3)nc2c1` (stereo not drawn) [Example 41, 2-(5-(2-(Isopropylamino)ethoxy)-6-(4-(methylsulfinyl)phenyl)pyridin-2-yl)-5,7-dimethoxyquinazolin-4(3H)-one]: the melting point lay within 93 to 95 °C. Also, in the data set with c-myc, the “c-myc activity (IC50 < 30 μM)” value is recorded as “Active”. For the same molecule, the “cell proliferation activity (IC50 < 30 μM)” value in the data set on Human AML MV-4-11 cells is reported as “Active”. Besides, the “MCP-1 Activity (IC50 < 30 μM)” value in the data set with hMCP-1 mRNA was “Active”. Besides, the “In vivo Activity” value in the data set on arthritic rats is listed as “Active”. Further, in the data set with hApoA-1 mRNA, the “ApoA-1 Activity (EC170 < 30 μM)” value is “Active”.
